According to paper PMC8370991, “Structural basis for the inhibition of HTLV-1 integration inferred from cryo-EM deltaretroviral intasome structures” (Nature Communications, 2021):
Like-named read-outs stand apart in the source and are kept apart here.

Key:
STLV-1 IN(A219E) = test: In vitro strand transfer assay with STLV-1 IN(A219E); format: biochemical; set-up: STLV-1 A219E strand transfer activity: unit not given here
Protocol: (§1) For STLV-1 IN, the reaction conditions were 25 mM BTP-HCl pH 6, 0.1 μM STLV-1 IN, 2 μM vDNA, 60 mM NaCl, 13.28 mM DTT, 10 mM MgCl2, 10 μM ZnCl2. STLV-1 IN and LEDGF/ΔIBD-B56γ were co-incubated at the above conditions at a 2:1 molar ratio, at 4 °C for 30 min. Donor vDNA was then added and the mixture was co-incubated at 37 °C for 10 min. For INSTI dose–response experiments, either the INSTI or DMSO control was then added, the sample was mixed and kept at 4 °C for an additional 15 min. Strand-transfer reactions were initiated by the addition of 300 ng of pGEM-9Zf(-) supercoiled plasmid DNA and stopped after 15 min of 37 °C incubation by adding 0.5% SDS and 25 mM EDTA, pH 8.0.
(§2) Proteins were degraded by incubation with 30 μg of proteinase K (Roche) at 37 °C for 1 h. DNA was precipitated at −20 °C overnight in the presence of ethanol supplemented with 20 μg of glycogen and then resuspended in 1.5× agarose loading dye. The DNA products were separated by electrophoresis through 1.5% agarose gel and stained with ethidium bromide and imaged using the BioRad GelDox XR + imager. The data were analysed and the IC50 calculated as previously described. In brief, the DNA band that corresponds to the concerted integration product was quantified by densitometry in ImageLab 4.1 (Bio-Rad). All experiments were done in triplicate. Quantified data points were fitted to dose–response curves in Prism 9. The cumulative standard deviation for each drug was calculated as an average of the upper limit and lower limit values: Lowerlimit=IC50/10^logSE(IC50) Upperlimit=IC50×10^logSE(IC50)

recombinant HTLV-1 IN [1] = biological target: T1, recombinant HTLV-1 IN (Human T-cell leukemia virus 1, UniProt P03362); test: In vitro integration strand transfer assay with HTLV-1 IN; format: biochemical; conditions: INSTI at 634 nM
T1 construct: made in house
Summary of the method: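 Recombinant HTLV-1 IN (4 μg) with annealed 3′-processed LTR donor DNA (0.53 μM) preincubated 15 min RT with compound (screen at 634 nM) in PIPES pH 6.0, NaCl, MgCl2, ZnCl2, DTT; supercoiled plasmid target added, 1 h 37 °C. Concerted integration product quantified by agarose-gel densitometry; IC50 from dose–response fits, triplicate.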

STLV-1 IN (WT) = test: In vitro strand transfer assay with wild-type STLV-1 IN; format: biochemical; set-up: STLV-1 WT strand transfer activity: unit not given here
Protocol: as §1, §2

recombinant HTLV-1 IN [2] = biological target: T1, recombinant HTLV-1 IN; conditions: previously obtained values, cited from earlier work
HTLV-1 = conditions: cited from earlier work
HIV-1 = conditions: cited from earlier work
[3] = log10 concentration -3.69897, column 1 of 3
[4] = log10 concentration -3.69897, column 2 of 3
[5] = log10 concentration -4.69897, column 1 of 3
[6] = log10 concentration -4.69897, column 2 of 3
[7] = log10 concentration -5.69897, column 1 of 3
[8] = log10 concentration -5.69897, column 2 of 3
[9] = log10 concentration -6.19791, column 1 of 3
[10] = log10 concentration -6.19791, column 2 of 3
[11] = log10 concentration -6.69897, column 1 of 3
[12] = log10 concentration -6.69897, column 2 of 3
[13] = log10 concentration -7.19791, column 1 of 3
[14] = log10 concentration -7.19791, column 2 of 3
[15] = log10 concentration -7.69897, column 1 of 3
[16] = log10 concentration -7.69897, column 2 of 3
[17] = log10 concentration -8.69897, column 1 of 3
[18] = log10 concentration -8.69897, column 2 of 3
[19] = log10 concentration -10.699, column 1 of 3
[20] = log10 concentration -10.699, column 2 of 3

T1 sequence (P03362 1168-1462): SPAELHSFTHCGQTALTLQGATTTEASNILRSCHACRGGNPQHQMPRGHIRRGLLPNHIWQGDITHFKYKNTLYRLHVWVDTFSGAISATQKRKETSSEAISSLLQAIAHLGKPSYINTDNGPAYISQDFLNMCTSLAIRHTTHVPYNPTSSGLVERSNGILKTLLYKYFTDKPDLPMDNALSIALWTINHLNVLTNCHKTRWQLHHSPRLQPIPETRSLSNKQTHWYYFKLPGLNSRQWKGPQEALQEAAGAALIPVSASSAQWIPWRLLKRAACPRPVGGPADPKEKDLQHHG

Cc1nnc(C(=O)NC(C)(C)c2nc(C(=O)NCc3ccc(F)cc3)c(O)c(=O)n2C)o1 [Raltegravir]
IC50 with STLV-1 IN A219E compared with wild-type STLV-1 IN (STLV-1 IN(A219E); Supplementary Fig. 9): nearly identical
STLV-1 A219E strand transfer activity (STLV-1 IN(A219E); log10 concentration -3.69897): 4.375
STLV-1 A219E strand transfer activity (STLV-1 IN(A219E); [3]): 11.7647
STLV-1 A219E strand transfer activity (STLV-1 IN(A219E); [4]): 5.393
STLV-1 A219E strand transfer activity (STLV-1 IN(A219E); log10 concentration -4.69897): 6.875
STLV-1 A219E strand transfer activity (STLV-1 IN(A219E); [5]): 7.843
STLV-1 A219E strand transfer activity (STLV-1 IN(A219E); [6]): 4.103
STLV-1 A219E strand transfer activity (STLV-1 IN(A219E); log10 concentration -5.69897): 7.8125
STLV-1 A219E strand transfer activity (STLV-1 IN(A219E); [7]): 11.7647
STLV-1 A219E strand transfer activity (STLV-1 IN(A219E); [8]): 9.8476
STLV-1 A219E strand transfer activity (STLV-1 IN(A219E); log10 concentration -6.19791): 12.6562
STLV-1 A219E strand transfer activity (STLV-1 IN(A219E); [9]): 16.6667
STLV-1 A219E strand transfer activity (STLV-1 IN(A219E); [10]): 12.4267
STLV-1 A219E strand transfer activity (STLV-1 IN(A219E); log10 concentration -6.69897): 25.4688
STLV-1 A219E strand transfer activity (STLV-1 IN(A219E); [11]): 27.9412
STLV-1 A219E strand transfer activity (STLV-1 IN(A219E); [12]): 28.136
STLV-1 A219E strand transfer activity (STLV-1 IN(A219E); log10 concentration -7.19791): 49.375
STLV-1 A219E strand transfer activity (STLV-1 IN(A219E); [13]): 64.2157
STLV-1 A219E strand transfer activity (STLV-1 IN(A219E); [14]): 59.4373
STLV-1 A219E strand transfer activity (STLV-1 IN(A219E); log10 concentration -7.69897): 90.625
STLV-1 A219E strand transfer activity (STLV-1 IN(A219E); [15]): 108.333
STLV-1 A219E strand transfer activity (STLV-1 IN(A219E); [16]): 86.2837
STLV-1 A219E strand transfer activity (STLV-1 IN(A219E); log10 concentration -8.69897): 101.406
STLV-1 A219E strand transfer activity (STLV-1 IN(A219E); [17]): 107.843
STLV-1 A219E strand transfer activity (STLV-1 IN(A219E); [18]): 97.5381
STLV-1 A219E strand transfer activity (STLV-1 IN(A219E); log10 concentration -10.699): 97.9688
STLV-1 A219E strand transfer activity (STLV-1 IN(A219E); [19]): 103.922
STLV-1 A219E strand transfer activity (STLV-1 IN(A219E); [20]): 99.8828
HTLV-1 IN strand transfer activity (No drug = 100) (recombinant HTLV-1 IN [1]; Replicate 1): 34.4506%
HTLV-1 IN strand transfer activity (No drug = 100) (recombinant HTLV-1 IN [1]; Replicate 2): 36.5909%
sensitivity of STLV-1 IN to the inhibitor (STLV-1 IN (WT); Supplementary Fig. 9): highly sensitive
STLV-1 WT strand transfer activity (STLV-1 IN (WT); log10 concentration -3.69897): 15.0259
STLV-1 WT strand transfer activity (STLV-1 IN (WT); [3]): 3.382
STLV-1 WT strand transfer activity (STLV-1 IN (WT); [4]): 1.339
STLV-1 WT strand transfer activity (STLV-1 IN (WT); log10 concentration -4.69897): 15.0259
STLV-1 WT strand transfer activity (STLV-1 IN (WT); [5]): 1.932
STLV-1 WT strand transfer activity (STLV-1 IN (WT); [6]): 3.125
STLV-1 WT strand transfer activity (STLV-1 IN (WT); log10 concentration -5.69897): 25.9067
STLV-1 WT strand transfer activity (STLV-1 IN (WT); [7]): 14.0097
STLV-1 WT strand transfer activity (STLV-1 IN (WT); [8]): 13.3929
STLV-1 WT strand transfer activity (STLV-1 IN (WT); log10 concentration -6.19791): 38.342
STLV-1 WT strand transfer activity (STLV-1 IN (WT); [9]): 20.7729
STLV-1 WT strand transfer activity (STLV-1 IN (WT); [10]): 15.625
STLV-1 WT strand transfer activity (STLV-1 IN (WT); log10 concentration -6.69897): 40.9326
STLV-1 WT strand transfer activity (STLV-1 IN (WT); [11]): 26.57
STLV-1 WT strand transfer activity (STLV-1 IN (WT); [12]): 43.3036
STLV-1 WT strand transfer activity (STLV-1 IN (WT); log10 concentration -7.19791): 63.2124
STLV-1 WT strand transfer activity (STLV-1 IN (WT); [13]): 62.3188
STLV-1 WT strand transfer activity (STLV-1 IN (WT); [14]): 68.75
STLV-1 WT strand transfer activity (STLV-1 IN (WT); log10 concentration -7.69897): 94.3005
STLV-1 WT strand transfer activity (STLV-1 IN (WT); [15]): 86.4734
STLV-1 WT strand transfer activity (STLV-1 IN (WT); [16]): 94.1964
STLV-1 WT strand transfer activity (STLV-1 IN (WT); log10 concentration -8.69897): 91.7098
STLV-1 WT strand transfer activity (STLV-1 IN (WT); [17]): 100.483
STLV-1 WT strand transfer activity (STLV-1 IN (WT); [18]): 99.1071
STLV-1 WT strand transfer activity (STLV-1 IN (WT); log10 concentration -9.69897): 106.218
STLV-1 WT strand transfer activity (STLV-1 IN (WT); log10 concentration -9.69897, column 1 of 3): 101.449
STLV-1 WT strand transfer activity (STLV-1 IN (WT); log10 concentration -9.69897, column 2 of 3): 100.446
STLV-1 WT strand transfer activity (STLV-1 IN (WT); log10 concentration -10.699): 100.518
STLV-1 WT strand transfer activity (STLV-1 IN (WT); [19]): 102.415
STLV-1 WT strand transfer activity (STLV-1 IN (WT); [20]): 99.5536
IC50 (recombinant HTLV-1 IN [2]; Replicate 1, read-out: HTLV-1 IN strand transfer IC50): 477 nM
IC50 (recombinant HTLV-1 IN [2]; Replicate 2, read-out: HTLV-1 IN strand transfer IC50): 425 nM
IC50 (recombinant HTLV-1 IN [2]; Replicate 3, read-out: HTLV-1 IN strand transfer IC50): 344 nM
IC50 (recombinant HTLV-1 IN [2]; integrase strand-transfer, read-out: HTLV-1 IC50 ± stdev): 410 ± 78.5 nM
EC50 (HTLV-1; MT-2-Jurkat cell-to-cell infection, read-out: HTLV-1 EC50): 6.42 ± 4.24 nM
EC50 (HTLV-1; Replicate 1, previously reported values, read-out: HTLV-1 infection EC50): 7.85 nM
EC50 (HTLV-1; Replicate 2, previously reported values, read-out: HTLV-1 infection EC50): 8.18 nM
EC50 (HTLV-1; Replicate 3, previously reported values, read-out: HTLV-1 infection EC50): 4.08 nM
EC50 (HIV-1; HIV-1 infection model, supplementary ref 18, read-out: HIV-1 EC50 ± stdev): 9.4 ± 1.4 nM
EC50 (HIV-1; previously reported, read-out: EC50, infection by wild-type HIV-1): 4 ± 2 nM
